{
  "source": "patent US8952024B2",
  "about": "“Herbicidal pyrimidone derivatives” (E I du Pont de Nemours and Company, priority 2009, dated 2015)",
  "type_in_all_cases": "in vivo",
  "key": {"[1]": {"test_system": "ducksalad (Heteranthera limosa)", "assay": "Test B flooded paddy test", "conditions": "for Plant response rating, Flood, Ducksalad: 250 g ai/ha, flooded paddy test, visual rating on 0 to 100 scale (0 no effect, 100 complete control) after 13 to 15 days; for Plant response rating, Ducksalad: Flood (flooded paddy test), 62 g ai/ha, scale of 0 to 100 where 0 is no effect and 100 is complete control, 13 to 15 days", "outline": "(§1)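 Plants were grown to the 2-leaf stage, then pots were flooded to 3 cm above the soil and compounds were applied directly into the paddy water. That depth was held throughout. After 13 to 15 days in a greenhouse, injury was visually rated against controls on a 0–100 scale.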"}, "[2]": {"test_system": "barnyardgrass (Echinochloa crus-galli)", "assay": "Test B flooded paddy test", "conditions": "for Plant response rating, Flood, Barnyardgrass: 250 g ai/ha, flooded paddy test, visual rating on 0 to 100 scale (0 no effect, 100 complete control) after 13 to 15 days; for Plant response rating, Barnyardgrass: Flood (flooded paddy test), 62 g ai/ha, scale of 0 to 100 where 0 is no effect and 100 is complete control, 13 to 15 days", "outline": "as §1"}, "[3]": {"test_system": "rice (Oryza sativa)", "assay": "Test B flooded paddy test", "conditions": "for Plant response rating, Flood, Rice: 250 g ai/ha, flooded paddy test, visual rating on 0 to 100 scale (0 no effect, 100 complete control) after 13 to 15 days; for Plant response rating, Rice: Flood (flooded paddy test), 62 g ai/ha, scale of 0 to 100 where 0 is no effect and 100 is complete control, 13 to 15 days", "outline": "as §1"}, "[4]": {"test_system": "umbrella sedge (Cyperus difformis)", "assay": "Test B flooded paddy test", "conditions": "for Plant response rating, Flood, Sedge, Umbrella: 250 g ai/ha, flooded paddy test, visual rating on 0 to 100 scale (0 no effect, 100 complete control) after 13 to 15 days; for Plant response rating, Sedge, Umbrella: Flood (flooded paddy test), 62 g ai/ha, scale of 0 to 100 where 0 is no effect and 100 is complete control, 13 to 15 days", "outline": "as §1"}, "[5]": {"test_system": "morningglory (Ipomoea spp.)", "assay": "Test A pre-/postemergence plant response", "excerpt": "(§2) Seeds of barnyardgrass (Echinochloa crus-galli), large crabgrass (Digitaria sanguinalis), giant foxtail (Setaria faberii), morningglory (Ipomoea spp.), pigweed (Amaranthus retroflexus), velvetleaf (Abutilon theophrasti), wheat (Triticum aestivum) and corn (Zea mays) were planted into a blend of loam soil and sand and treated preemergence with a directed soil spray using test chemicals formulated in a non-phytotoxic solvent mixture which included a surfactant. At the same time these species were also treated with postemergence applications of test compounds formulated in the same manner.\n(§3) Plants ranged in height from two to ten cm and were in the one- to two-leaf stage for the postemergence treatment. Treated plants and untreated controls were maintained in a greenhouse for approximately ten days, after which time all treated plants were compared to untreated controls and visually evaluated for injury. Plant response ratings, summarized in Table A, are based on a 0 to 100 scale where 0 is no effect and 100 is complete control. A dash (-) response means no test result."}, "[6]": {"test_system": "wheat (Triticum aestivum)", "assay": "Test A pre-/postemergence plant response", "excerpt": "as §2, §3"}, "[7]": {"test_system": "velvetleaf (Abutilon theophrasti)", "assay": "Test A pre-/postemergence plant response", "excerpt": "as §2, §3"}, "[8]": {"test_system": "pigweed (Amaranthus retroflexus)", "assay": "Test A pre-/postemergence plant response", "excerpt": "as §2, §3"}, "[9]": {"test_system": "barnyardgrass (Echinochloa crus-galli)", "assay": "Test A pre-/postemergence plant response", "excerpt": "as §2, §3"}, "[10]": {"test_system": "corn (Zea mays)", "assay": "Test A pre-/postemergence plant response", "excerpt": "as §2, §3"}, "[11]": {"test_system": "large crabgrass (Digitaria sanguinalis)", "assay": "Test A pre-/postemergence plant response", "excerpt": "as §2, §3"}, "[12]": {"test_system": "giant foxtail (Setaria faberii)", "assay": "Test A pre-/postemergence plant response", "excerpt": "as §2, §3"}, "[13]": {"conditions": "Postemergence, 125 g ai/ha, 0 to 100 scale where 0 is no effect and 100 is complete control"}, "[14]": {"conditions": "Postemergence, 500 g ai/ha, 0 to 100 scale, 0 = no effect, 100 = complete control, approx. ten days"}, "[15]": {"conditions": "Preemergence, 125 g ai/ha, 0 to 100 scale, 0 = no effect, 100 = complete control"}, "[16]": {"conditions": "Preemergence, 500 g ai/ha, visual injury, 0 to 100 scale (0 no effect, 100 complete control), approx. ten days"}},
  "data": [
    {"smiles": "CCn1c(-c2cccc(C)c2)ncc(C(=O)C2=C(O)CCCC2=O)c1=O", "note": "[Compound 115]", "values": [
      {"measurement": "Plant response rating, Flood, Ducksalad", "setting": "[1]", "value": 85},
      {"measurement": "Plant response rating, Ducksalad", "setting": "[1]", "value": 85},
      {"measurement": "Plant response rating, Flood, Barnyardgrass", "setting": "[2]", "value": 65},
      {"measurement": "Plant response rating, Barnyardgrass", "setting": "[2]", "value": 50},
      {"measurement": "Plant response rating, Flood, Rice", "setting": "[3]", "value": 20},
      {"measurement": "Plant response rating, Rice", "setting": "[3]", "value": 20},
      {"measurement": "Plant response rating, Flood, Sedge, Umbrella", "setting": "[4]", "value": 90},
      {"measurement": "Plant response rating, Sedge, Umbrella", "setting": "[4]", "value": 70},
      {"measurement": "Plant response rating, Morningglory", "setting": "[5]; [13]", "value": 90},
      {"measurement": "Plant response rating, Morningglory", "setting": "[5]; [14]", "value": 100},
      {"measurement": "Plant response rating, Morningglory", "setting": "[5]; [15]", "value": 60},
      {"measurement": "Plant response rating, Morningglory", "setting": "[5]; [16]", "value": 80},
      {"measurement": "Plant response rating, Wheat", "setting": "[6]; [13]", "value": 0},
      {"measurement": "Plant response rating, Wheat", "setting": "[6]; [14]", "value": 0},
      {"measurement": "Plant response rating, Wheat", "setting": "[6]; [15]", "value": 0},
      {"measurement": "Plant response rating, Wheat", "setting": "[6]; [16]", "value": 0},
      {"measurement": "Plant response rating, Velvetleaf", "setting": "[7]; [13]", "value": 100},
      {"measurement": "Plant response rating, Velvetleaf", "setting": "[7]; [14]", "value": 100},
      {"measurement": "Plant response rating, Velvetleaf", "setting": "[7]; [15]", "value": 60},
      {"measurement": "Plant response rating, Velvetleaf", "setting": "[7]; [16]", "value": 90},
      {"measurement": "Plant response rating, Pigweed", "setting": "[8]; [13]", "value": 100},
      {"measurement": "Plant response rating, Pigweed", "setting": "[8]; [14]", "value": 100},
      {"measurement": "Plant response rating, Pigweed", "setting": "[8]; [15]", "value": 70},
      {"measurement": "Plant response rating, Pigweed", "setting": "[8]; [16]", "value": 100},
      {"measurement": "Plant response rating, Barnyardgrass", "setting": "[9]; [13]", "value": 70},
      {"measurement": "Plant response rating, Barnyardgrass", "setting": "[9]; [14]", "value": 90},
      {"measurement": "Plant response rating, Barnyardgrass", "setting": "[9]; [15]", "value": 0},
      {"measurement": "Plant response rating, Barnyardgrass", "setting": "[9]; [16]", "value": 80},
      {"measurement": "Plant response rating, Corn", "setting": "[10]; [13]", "value": 0},
      {"measurement": "Plant response rating, Corn", "setting": "[10]; [14]", "value": 20},
      {"measurement": "Plant response rating, Corn", "setting": "[10]; [15]", "value": 0},
      {"measurement": "Plant response rating, Corn", "setting": "[10]; [16]", "value": 0},
      {"measurement": "Plant response rating, Crabgrass, Large", "setting": "[11]; [13]", "value": 60},
      {"measurement": "Plant response rating, Crabgrass, Large", "setting": "[11]; [14]", "value": 90},
      {"measurement": "Plant response rating, Crabgrass, Large", "setting": "[11]; [15]", "value": 20},
      {"measurement": "Plant response rating, Crabgrass, Large", "setting": "[11]; [16]", "value": 80},
      {"measurement": "Plant response rating, Foxtail, Giant", "setting": "[12]; [13]", "value": 50},
      {"measurement": "Plant response rating, Foxtail, Giant", "setting": "[12]; [14]", "value": 80},
      {"measurement": "Plant response rating, Foxtail, Giant", "setting": "[12]; [15]", "value": 20},
      {"measurement": "Plant response rating, Foxtail, Giant", "setting": "[12]; [16]", "value": 70}
    ]},
    {"smiles": "CCCCn1c(-c2cccc(C)c2)ncc(C(=O)C2=C(O)CCCC2=O)c1=O", "note": "[Compound 116]", "values": [
      {"measurement": "Plant response rating, Flood, Ducksalad", "setting": "[1]", "value": 85},
      {"measurement": "Plant response rating, Ducksalad", "setting": "[1]", "value": 80},
      {"measurement": "Plant response rating, Flood, Barnyardgrass", "setting": "[2]", "value": 75},
      {"measurement": "Plant response rating, Barnyardgrass", "setting": "[2]", "value": 65},
      {"measurement": "Plant response rating, Flood, Rice", "setting": "[3]", "value": 0},
      {"measurement": "Plant response rating, Rice", "setting": "[3]", "value": 0},
      {"measurement": "Plant response rating, Flood, Sedge, Umbrella", "setting": "[4]", "value": 90},
      {"measurement": "Plant response rating, Sedge, Umbrella", "setting": "[4]", "value": 75},
      {"measurement": "Plant response rating, Morningglory", "setting": "[5]; [13]", "value": 100},
      {"measurement": "Plant response rating, Morningglory", "setting": "[5]; [14]", "value": 100},
      {"measurement": "Plant response rating, Morningglory", "setting": "[5]; [15]", "value": 0},
      {"measurement": "Plant response rating, Morningglory", "setting": "[5]; [16]", "value": 40},
      {"measurement": "Plant response rating, Wheat", "setting": "[6]; [13]", "value": 0},
      {"measurement": "Plant response rating, Wheat", "setting": "[6]; [14]", "value": 0},
      {"measurement": "Plant response rating, Wheat", "setting": "[6]; [15]", "value": 0},
      {"measurement": "Plant response rating, Wheat", "setting": "[6]; [16]", "value": 0},
      {"measurement": "Plant response rating, Velvetleaf", "setting": "[7]; [13]", "value": 70},
      {"measurement": "Plant response rating, Velvetleaf", "setting": "[7]; [14]", "value": 100},
      {"measurement": "Plant response rating, Velvetleaf", "setting": "[7]; [15]", "value": 30},
      {"measurement": "Plant response rating, Velvetleaf", "setting": "[7]; [16]", "value": 60},
      {"measurement": "Plant response rating, Pigweed", "setting": "[8]; [13]", "value": 100},
      {"measurement": "Plant response rating, Pigweed", "setting": "[8]; [14]", "value": 100},
      {"measurement": "Plant response rating, Pigweed", "setting": "[8]; [15]", "value": 60},
      {"measurement": "Plant response rating, Pigweed", "setting": "[8]; [16]", "value": 100},
      {"measurement": "Plant response rating, Barnyardgrass", "setting": "[9]; [13]", "value": 80},
      {"measurement": "Plant response rating, Barnyardgrass", "setting": "[9]; [14]", "value": 100},
      {"measurement": "Plant response rating, Barnyardgrass", "setting": "[9]; [15]", "value": 10},
      {"measurement": "Plant response rating, Barnyardgrass", "setting": "[9]; [16]", "value": 70},
      {"measurement": "Plant response rating, Corn", "setting": "[10]; [13]", "value": 0},
      {"measurement": "Plant response rating, Corn", "setting": "[10]; [14]", "value": 10},
      {"measurement": "Plant response rating, Corn", "setting": "[10]; [15]", "value": 0},
      {"measurement": "Plant response rating, Corn", "setting": "[10]; [16]", "value": 0},
      {"measurement": "Plant response rating, Crabgrass, Large", "setting": "[11]; [13]", "value": 60},
      {"measurement": "Plant response rating, Crabgrass, Large", "setting": "[11]; [14]", "value": 80},
      {"measurement": "Plant response rating, Crabgrass, Large", "setting": "[11]; [15]", "value": 30},
      {"measurement": "Plant response rating, Crabgrass, Large", "setting": "[11]; [16]", "value": 70},
      {"measurement": "Plant response rating, Foxtail, Giant", "setting": "[12]; [13]", "value": 60},
      {"measurement": "Plant response rating, Foxtail, Giant", "setting": "[12]; [14]", "value": 90},
      {"measurement": "Plant response rating, Foxtail, Giant", "setting": "[12]; [15]", "value": 10},
      {"measurement": "Plant response rating, Foxtail, Giant", "setting": "[12]; [16]", "value": 60}
    ]}
  ]
}
